{
  "source": "ChEMBL document CHEMBL1212695",
  "about": "“An allosteric potentiator of M4 mAChR modulates hippocampal synaptic transmission” (Nat Chem Biol, 2008)",
  "key": {"[1]": {"test": "Agonist activity at muscarinic receptor in M4 receptor knock out mouse hippocampal CA1 pyramidal neuron assessed as reduction of excitatory postsynaptic current amplitude at 2 uM by whole-cell electrophysiology relative to control", "type": "functional", "settings": "Hippocampus"}, "[2]": {"biological_target": "T1, Muscarinic acetylcholine receptor M4 (Rattus norvegicus) (UniProt P08485)", "T1 sequence (whole entry)": "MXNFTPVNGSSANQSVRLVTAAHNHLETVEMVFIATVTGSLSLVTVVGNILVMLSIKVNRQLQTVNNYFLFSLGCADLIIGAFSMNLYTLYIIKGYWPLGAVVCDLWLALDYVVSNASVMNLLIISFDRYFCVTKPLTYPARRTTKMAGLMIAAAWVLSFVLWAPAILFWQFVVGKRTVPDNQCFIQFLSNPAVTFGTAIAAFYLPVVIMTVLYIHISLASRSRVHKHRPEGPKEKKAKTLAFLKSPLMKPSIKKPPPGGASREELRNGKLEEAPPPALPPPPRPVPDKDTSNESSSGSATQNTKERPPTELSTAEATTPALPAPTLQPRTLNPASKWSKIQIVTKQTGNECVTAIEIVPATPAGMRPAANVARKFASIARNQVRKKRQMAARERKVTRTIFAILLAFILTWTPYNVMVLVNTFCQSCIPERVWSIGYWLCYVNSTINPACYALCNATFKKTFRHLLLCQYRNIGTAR", "test": "Agonist activity at muscarinic M4 receptor in Sprague-Dawley rat hippocampal CA1 pyramidal neuron assessed as reduction of inhibitory postsynaptic current at 0.5 uM by whole-cell electrophysiology relative to control", "type": "functional, tissue-based", "settings": "Hippocampus"}, "[3]": {"biological_target": "T2, Muscarinic acetylcholine receptor M2 (Rattus norvegicus) (UniProt P10980)", "T2 sequence (whole entry)": "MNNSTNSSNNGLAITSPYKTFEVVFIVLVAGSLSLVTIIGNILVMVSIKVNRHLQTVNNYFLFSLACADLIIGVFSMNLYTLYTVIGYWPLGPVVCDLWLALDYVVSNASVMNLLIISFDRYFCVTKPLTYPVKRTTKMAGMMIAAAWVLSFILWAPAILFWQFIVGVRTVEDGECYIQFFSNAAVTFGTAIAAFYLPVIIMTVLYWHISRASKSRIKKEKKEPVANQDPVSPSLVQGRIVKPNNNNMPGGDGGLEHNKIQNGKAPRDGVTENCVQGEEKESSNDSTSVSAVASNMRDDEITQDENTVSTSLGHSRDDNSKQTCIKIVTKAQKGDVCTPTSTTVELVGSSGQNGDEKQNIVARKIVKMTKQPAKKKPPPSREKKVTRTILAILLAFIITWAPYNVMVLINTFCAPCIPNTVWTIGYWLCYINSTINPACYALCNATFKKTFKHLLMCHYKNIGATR", "test": "Allosteric activation of rat recombinant muscarinic M2 receptor expressed in CHO cells assessed as potentiation of acetylcholine-induced calcium mobilization at 10 uM after 1 hr by fluorescence assay", "type": "functional, cell-based"}, "[4]": {"biological_target": "T1, Muscarinic acetylcholine receptor M4 (Rattus norvegicus)", "test": "Allosteric activation of rat recombinant muscarinic M4 receptor expressed in CHO cells assessed as […] in acetylcholine EC50 for induction of calcium mobilization at 10 uM after 1 hr by fluorescence assay", "type": "functional, cell-based"}, "CHO": {"system": "CHO", "test": "Allosteric activation at P2Y1 receptor in CHO cells assessed as potentiation of acetylcholine-induced calcium mobilization at 10 uM after 1 hr by fluorescence assay", "type": "cell-based", "settings": "Cricetulus griseus"}, "[5]": {"biological_target": "T3, Muscarinic acetylcholine receptor M5 (Rattus norvegicus) (UniProt P08911)", "T3 sequence (whole entry)": "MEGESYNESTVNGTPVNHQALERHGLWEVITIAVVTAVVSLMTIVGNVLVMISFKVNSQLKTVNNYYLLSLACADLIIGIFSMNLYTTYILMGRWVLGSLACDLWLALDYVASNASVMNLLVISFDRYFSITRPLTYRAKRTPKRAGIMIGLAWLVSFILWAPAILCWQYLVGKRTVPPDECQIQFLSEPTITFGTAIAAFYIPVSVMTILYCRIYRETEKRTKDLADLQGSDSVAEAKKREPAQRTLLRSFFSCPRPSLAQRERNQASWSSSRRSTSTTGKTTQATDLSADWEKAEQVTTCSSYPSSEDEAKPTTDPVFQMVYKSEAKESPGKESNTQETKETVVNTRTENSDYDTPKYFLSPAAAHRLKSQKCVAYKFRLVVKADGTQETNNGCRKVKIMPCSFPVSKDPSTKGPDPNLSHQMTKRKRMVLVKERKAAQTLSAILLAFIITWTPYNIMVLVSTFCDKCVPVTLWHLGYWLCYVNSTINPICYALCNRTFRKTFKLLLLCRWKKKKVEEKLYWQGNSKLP", "test": "Agonist activity at rat recombinant muscarinic M5 receptor expressed in CHO cells assessed as induction of calcium mobilization at 10 uM after 1 hr by fluorescence assay", "type": "functional, cell-based"}, "[6]": {"biological_target": "Muscarinic acetylcholine receptor M3 (Rattus norvegicus) (UniProt P08483)", "sequence (P08483 whole entry, looked up)": "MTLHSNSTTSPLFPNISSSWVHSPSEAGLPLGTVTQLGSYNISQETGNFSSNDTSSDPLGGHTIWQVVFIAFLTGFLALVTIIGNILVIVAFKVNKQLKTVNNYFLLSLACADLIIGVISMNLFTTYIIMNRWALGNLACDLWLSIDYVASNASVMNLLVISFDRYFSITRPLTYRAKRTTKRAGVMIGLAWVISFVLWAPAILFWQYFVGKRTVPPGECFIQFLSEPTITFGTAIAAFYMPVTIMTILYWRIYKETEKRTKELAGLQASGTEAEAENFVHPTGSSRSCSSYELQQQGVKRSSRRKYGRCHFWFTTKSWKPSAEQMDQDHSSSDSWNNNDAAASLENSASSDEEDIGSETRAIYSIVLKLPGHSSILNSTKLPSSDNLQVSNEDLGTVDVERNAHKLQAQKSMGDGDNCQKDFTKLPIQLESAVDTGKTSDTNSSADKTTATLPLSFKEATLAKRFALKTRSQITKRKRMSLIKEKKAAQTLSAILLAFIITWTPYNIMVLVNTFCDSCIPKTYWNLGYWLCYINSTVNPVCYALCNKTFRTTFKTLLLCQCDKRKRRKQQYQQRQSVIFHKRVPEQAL", "test": "Displacement of [3H]NMS from rat recombinant muscarinic M3 receptor expressed in CHO cells after 2 hrs by microplate scintillation counting", "type": "cell-based"}, "[7]": {"biological_target": "T3, Muscarinic acetylcholine receptor M5 (Rattus norvegicus)", "test": "Displacement of [3H]NMS from rat recombinant muscarinic M5 receptor expressed in CHO cells after 2 hrs by microplate scintillation counting", "type": "cell-based"}, "[8]": {"biological_target": "T1, Muscarinic acetylcholine receptor M4 (Rattus norvegicus)", "test": "Allosteric activation of rat recombinant muscarinic M4 receptor expressed in CHO cells assessed as fold decrease in acetylcholine Ki for displacement of [3H]NMS from active binding site at 10 uM after 2 hrs by microplate scintillation counting", "type": "cell-based"}, "[9]": {"biological_target": "T1, Muscarinic acetylcholine receptor M4 (Rattus norvegicus)", "test": "Allosteric activation of rat recombinant muscarinic M4 receptor expressed in CHO cells assessed as potentiation of acetylcholine-induced increase in [35S]GTPgammaS binding at 10 um after 1 hr by equilibrium binding assay", "type": "functional, cell-based"}, "[10]": {"biological_target": "T1, Muscarinic acetylcholine receptor M4 (Rattus norvegicus)", "test": "Agonist activity at muscarinic M4 receptor in Sprague-Dawley rat hippocampal CA1 pyramidal neuron assessed as increase in carbachol-induced reduction in excitatory postsynaptic current at 10 uM by whole-cell electrophysiology relative to control", "type": "functional, tissue-based", "set-up": "scale not given: the % may be the effect or the level left", "settings": "Hippocampus"}, "[11]": {"biological_target": "T4, Muscarinic acetylcholine receptor M4 (Mus musculus) (UniProt P32211)", "T4 sequence (whole entry)": "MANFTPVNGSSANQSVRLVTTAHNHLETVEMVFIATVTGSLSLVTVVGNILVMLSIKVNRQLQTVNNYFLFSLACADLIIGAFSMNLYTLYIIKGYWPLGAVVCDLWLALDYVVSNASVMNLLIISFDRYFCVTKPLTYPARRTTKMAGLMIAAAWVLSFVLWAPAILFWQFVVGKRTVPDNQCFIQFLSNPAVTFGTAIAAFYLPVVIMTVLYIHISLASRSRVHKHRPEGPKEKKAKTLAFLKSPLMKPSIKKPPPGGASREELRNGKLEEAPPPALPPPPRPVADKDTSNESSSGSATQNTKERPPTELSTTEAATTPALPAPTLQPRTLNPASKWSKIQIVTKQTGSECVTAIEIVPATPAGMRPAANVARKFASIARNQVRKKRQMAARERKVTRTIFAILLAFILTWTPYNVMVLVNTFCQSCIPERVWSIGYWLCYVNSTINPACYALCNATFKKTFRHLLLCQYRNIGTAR", "test": "Agonist activity at muscarinic M4 receptor in wild type mouse hippocampal CA1 pyramidal neuron assessed as reduction of excitatory postsynaptic current at 100 uM by whole-cell electrophysiology relative to control", "type": "functional, tissue-based", "settings": "Hippocampus"}, "[12]": {"biological_target": "T4, Muscarinic acetylcholine receptor M4 (Mus musculus)", "test": "Agonist activity at muscarinic M4 receptor in wild type mouse hippocampal CA1 pyramidal neuron assessed as excitatory postsynaptic current amplitude at 5 uM by whole-cell electrophysiology relative to control", "type": "functional, tissue-based", "settings": "Hippocampus"}},
  "note": "The source made the active and inactive calls. The calls are words filed in the database; no cut-off is given here.",
  "data": [
    {"compound": "Cc1cc(C)c2c(N)c(C(=O)NCc3ccc(Cl)cc3)sc2n1", "values": [
      {"measurement": "inhibition at 2 µM", "setting": "[1]", "value": 70.8, "unit": "%"},
      {"measurement": "inhibition", "setting": "[2]", "value": 62.2, "unit": "%"},
      {"measurement": "Activity", "setting": "[3]", "value": "inactive"},
      {"measurement": "fold change (FC)", "setting": "[4]", "value": 47},
      {"measurement": "Activity", "setting": "CHO", "value": "inactive"},
      {"measurement": "Activity", "setting": "[5]", "value": "inactive"},
      {"measurement": "Activity", "setting": "[6]", "value": "inactive"},
      {"measurement": "Activity", "setting": "[7]", "value": "inactive"},
      {"measurement": "fold change (FC)", "setting": "[8]", "value": 14},
      {"measurement": "Activity", "setting": "[9]", "value": 43, "unit": "%"},
      {"measurement": "Activity", "setting": "[10]", "value": 42.7, "unit": "%"},
      {"measurement": "inhibition", "setting": "[11]", "value": 18, "unit": "%"},
      {"measurement": "Activity", "setting": "[12]", "value": 102, "unit": "%"}
    ]}
  ]
}
